From patent US20160082015A1, “METHODS, COMPOSITIONS AND KITS FOR PROMOTING MOTOR NEURON SURVIVAL AND TREATING AND DIAGNOSING NEURODEGENERATIVE DISORDERS” (PRESIDENT AND FELLOWS OF HARVARD COLLEGE, priority 2013, published 2016)

Tests used:
HB9::GFP MNs = assay: Whole-cell voltage-clamp and current-clamp recordings; type: cell-based, mouse; details: −TF/+kenpaullone, 3 days
Protocol: Images show synapsin (yellow) and PSD95 (red) staining on a kenpaullone-treated MN. Arrows indicate examples of synapses on MNs. Data are presented as mean±SEM. Scale bar represents 50 μm. […] HB9::GFP MNs treated for 3 days in the absence of trophic factors (−TF/+kenpaullone) were compared to MNs that were grown in complete medium (+TF) in terms of functional sodium and potassium currents, action potentials, response to excitatory neurotransmitter (kainate, 100 μM), and response to inhibitory neurotransmitter (GABA, 100 μM).
Whole-cell voltage-clamp and current-clamp recordings were performed as described (Son et al., 2011).
To examine whether kenpaullone could maintain neuronal health during trophic factor withdrawal, the inventors also compared the electrophysiological properties of MNs grown in complete medium (+TF) with those of cells in trophic factor-deficient (−TF) medium with or without kenpaullone supplementation (FIGS. 4C and 10G). First of all, when the inventors attempted to record from cells grown in medium lacking both trophic factors and kenpaullone, the inventors were unable to obtain stable recordings despite a significant number of patch attempts. […] The inventors also recorded responses to excitatory neurotransmitters, such as kainate, and Inhibitory transmitters, such as GABA, in the two sets of MNs.

SOD1^G93A protein = assay: SOD1 protein levels by Western blotting and single cell imaging; type: cell-based, human
Protocol: (§1) In FIG. 5A cultures grown for 21 days in the indicated conditions were analyzed for levels of human SOD1 protein. The antibody used was specific for human SOD1, as is seen by the lack of staining on wild-type mouse MNs (HB9::GFP). When analyzed on day 21, levels of mutant SOD1^G93A protein, but not wt SOD1 protein, were decreased when cells were treated with kenpaullone in the absence of trophic factors. When analyzed on day 21, SOD1^G93A protein, but not wt SOD1 protein, was decreased when cultures were treated with kenpaullone in the presence of trophic factors as well (FIG. 5B). […] By this analysis, again on day 21, the average amount of SOD1 per MN was decreased by kenpaullone treatment in both +TF and −TF conditions. Scale bar represents 50 μm (FIG. 5C). Data are presented as mean±SEM. * p<0.05, *** p<0.001 (Student's t test, two-tailed).
Immunostaining was carried out using standard protocols (Makhortova et al., 2011). […]
Since the additional death undergone by the SOD1^G93A/HB9::GFP MNs seems likely to relate to their expression of high levels of SOD1^G93A protein, one possibility is that kenpaullone could act in part by reducing those levels. Kenpaullone was added to cultures on day 4, and the levels of mutant SOD1^G93A protein were analyzed by Western blotting on day 21 (FIGS. 5A and 5B). […]

wild-type human SOD1 = assay: SOD1 protein levels by Western blotting; type: cell-based; details: wtSOD1/Hb9::GFP cultures
Protocol: as §1
Since the additional death undergone by the SOD1^G93A/HB9::GFP MNs seems likely to relate to their expression of high levels of SOD1^G93A protein, one possibility is that kenpaullone could act in part by reducing those levels. Kenpaullone was added to cultures on day 4, and the levels of mutant SOD1^G93A protein were analyzed by Western blotting on day 21 (FIGS. 5A and 5B). […] The endogenous mouse SOD1 protein was not affected in either HB9::GFP or SOD1^G93A/HB9::GFP cultures (data not shown). […]

[1] = tested on: HGK-Tak1-MKK4-JNK-c-Jun cell death signaling cascade; assay: JNK/c-Jun signaling pathway analysis by immunostaining; type: cell-based, mouse; details: trophic factor withdrawal
Protocol: For JNK/c-Jun signaling pathway analysis, freshly dissociated SOD1G93A/HB9::GFP and HB9::GFP EBs were plated at a density of 30,000 GFP+ cells/well in 96-well plates and trophic factor withdrawal/compound addition was performed on day 4. Cells were fixed at 1, 6, 24 and 48 h after treatment, stained with appropriate antibodies, and imaged using an automated microscope (Perkin Elmer Operetta) at 20× magnification. GFP+ MNs were identified using Columbus analysis software (Perkin Elmer). Nuclear and cytoplasmic compartments were defined using Hoechst and GFP. Mean intensity of fluorescent staining across nuclear or cytoplasmic compartments was measured for each MN. Intensities were corrected for background staining levels (secondary antibody only) and the number of positive MNs per condition quantified.

SMILES: O=C1Cc2c([nH]c3ccc(Br)cc23)-c2ccccc2N1 [Kenpaullone]
- electrophysiological properties compared with MNs in complete medium (+TF) (HB9::GFP MNs): no significant difference
- levels of SOD1^G93A protein (SOD1^G93A protein; added day 4, Western blotting day 21, with and without trophic factors): sharp decrease
- mutant protein levels, untreated versus treated cultures (SOD1^G93A protein; until sometime after 15 days of treatment): no differences
- levels of wild-type human SOD1 (wild-type human SOD1): no effect
- MKK4 phosphorylation [1]: suppressed
- proportion of MNs immunopositive for phospho-Tak1 [1]: significantly reduced
- percent of MNs positive for phospho-JNK ([1]; early time points): decreased
- percent of MNs positive for phospho-cJun ([1]; early time points): decreased
